According to patent publication US8206764B2, “Black soybean hull extract, method for obtaining, and use thereof” (Beijing Gingko-Group Biological Technology Co., Ltd., priority 2006, dated 2012):

Test: clearance of hydroxyl free radicals, orthophenanthroline Fe2+ oxidation method
Format: biochemical
Set-up: Clearance rate of •OH (d): unit not given here
Conditions: for Clearance rate of •OH (d): n = 5
Description: Materials and methods-test drug and reagent: Extract of black soybean hull A (containing cyanidin 12.52%, catechin 13.50%, and OPC 54.01%). Orthophenanthroline, hydrogen peroxide, ascorbic acid (VC), and FeSO4.7H2O were all analytical pure reagents made in China. Materials and Methods-instruments: An LSY constant temperature water bath was obtained from a Beijing medical instrument manufacturer, and a UV-2000 spectrophotometer was from […], Shanghai Instrument Co., Ltd.). Test method-reagent preparation: Reagents included 0.1% H2O[…]), a 5 mmol/L anhydrous ethanol solution of orthophenanthroline, 0.75 mmol/L FeSO4, a 0.2 mmol/L phosphoric acid buffer solution (PBS; pH=7.4), BSHE A, prepared with double distilled water and diluted to concentrations of 0.5, 0.25, 0.125, and 0.0625 mg/ml, and ascorbic acid, prepared at concentrations of 4, 2, 1, and 0.5 mg/ml with double distilled water. Test method-measuring hydroxyl free radicals: The clearing of hydroxyl free radicals was tested using an orthophenanthrolin Fe^2+ oxidation method to further evaluate the anti-oxidation capacity of BSHE A. (1) 2 ml PBS, the test drug at the concentrations listed above, and 1 ml ascorbic acid were sequentially added to a disposable 10 ml polyethylene test tube and shaken. 0.35 ml of 5 mmol/L orthophenanthroline solution and 1 ml 0.75 mmol/L FeSO4 were added and mixed fully. 1 ml of 0.1% H2O2 was added, and the tube was vibrated for 1 minute. […] (2) The 1 ml of test drug in (1) was replaced with 1 ml deionized water, while the other conditions were the same as in (1). The absorbency value Ab was measured. (3) The 1 ml H2O2 in (2) was replaced with 1 ml deionized water, while the other conditions were the same as in (2). The absorbency value Ac was measured. (4) The clearance rate (d) of .OH by the test drug and the positive comparison was calculated according to the following equation: [formula] The total volume of reaction was 5.35 ml. The final concentrations of ascorbic acid thus were 0.748 mg/ml, 0.374 mg/ml, 0.187 mg/ml, and 0.093 mg/ml, while the final concentrations of BSHE A were 0.093 mg/ml, 0.047 mg/ml, 0.023 mg/ml, and 0.012 mg/ml. Five samples were tested in each group. The clearance rate of .OH was calculated individually and then average values were calculated.

O=C1O[C@H]([C@@H](O)CO)C(O)=C1O [ascorbic acid]
Clearance rate of •OH (d) (final concentration 0.093 mg/ml): 0.212 ± 2.47
Clearance rate of •OH (d) (final concentration 0.187 mg/ml): 4.21 ± 1.32
Clearance rate of •OH (d) (final concentration 0.374 mg/ml): 50.32 ± 4.29
Clearance rate of •OH (d) (final concentration 0.748 mg/ml): 91.29 ± 3.26
IC50 of hydroxyl free radical clearance (from fitted line): 401.4 µg/mL
